These results are taken from paper PMC8154419, “Druggable Hot Spots in the Schistosomiasis Cathepsin B1 Target Identified by Functional and Binding Mode Analysis of Potent Vinyl Sulfone Inhibitors” (ACS Infectious Diseases, 2020).

The target of data set [1] is T1, SmCB1 (Schistosoma mansoni, UniProt Q8MNY2, T185A/T300A). More on the design: method as in PMID 21832058. To be noted: reference compounds; SmCB1, Cbz–Phe–Arg–AMC, pH 5.5; read-out: Inhibition IC50; cited from earlier work.
Data set [2] deals with S. mansoni newly transformed schistosomula (NTS). In words: Parasite assay and phenotype scoring of newly transformed schistosomula. To be noted: score 0 to 4, 4 most severe. Format: cell-based, Schistosoma mansoni. How it is done:
The NTS were exposed to 1 and 10 μM inhibitors, and the resulting phenotypes were graded 0 through 4 from the least to the most severe (Figure 4B).[25],[26] […] The investigated inhibitors were also tested for their cytotoxicity against four human cell lines over 72 h.
Newly transformed schistosomula (NTS) of S. mansoni were prepared by mechanically transforming infective larvae (cercariae) as described previously.[67] NTS (200–300 parasites) were incubated in 200 μL of Basch Medium 169[68] containing 5% heat-inactivated fetal bovine serum, 100 U/mL penicillin, and 100 μg/mL streptomycin at 5% CO2 and 37 °C.[67],[69] […] We use single word or phrase “descriptors”[35] to record changes in movement, shape, and translucence (Figure S2).
Figure S2. Antischistosomal activity, cytotoxicity, and plasma stability of selected vinyl sulfone inhibitors. A. Induction of phenotypic alterations by the inhibitors was determined with newly transformed schistosomula (NTS) of S. mansoni. The inhibitors were tested at 1 and 10 µM concentrations for 24, 48 and 72 h, and the resulting phenotypes are shown as descriptor s .2 B. Example […]
captured using a Zeiss Axiovert 40 C inverted microscope (10x objective) and a Zeiss AxioCam MRc digital camera controlled by AxioVision 40 (v. 4.8.1.0) software. Scale bar = 0.2 mm. C. […]

A short description of data set [3]: In vitro plasma stability. Format: in vitro ADME. To be noted: 5 μM inhibitor, pooled human plasma, 30 min, 37°C. The method, then: Finally, we evaluated the metabolic stability of the inhibitors in human plasma in vitro. The stability was expressed as the percentage of parental compound remaining in plasma after 30 min of incubation.
Figure S2. Antischistosomal activity, cytotoxicity, and plasma stability of selected vinyl sulfone inhibitors. A. Induction of phenotypic alterations by the inhibitors was determined with newly transformed schistosomula (NTS) of S. mansoni. The inhibitors were tested at 1 and 10 µM concentrations for 24, 48 and 72 h, and the resulting phenotypes are shown as descriptor s .2 B. Example of an inhibitor-induced phenotype in NTS of S. mansoni versus untreated controls. Images were captured using a Zeiss Axiovert 40 C inverted microscope (10x objective) and a Zeiss AxioCam MRc digital camera controlled by AxioVision 40 (v. 4.8.1.0) software. Scale bar = 0.2 mm. C. Cytotoxicity of the inhibitors towards four human cell lines expressed as % viability vs. untreated cells. Cells were treated with the indicated concentration of the compounds for 72 h and assayed by means of the XTT test (as described previously3). Standard deviation values were within 10% of the mean of tetraplicates. D. In vitro plasma stability was determined for 5 µM inhibitors incubated with pooled human plasma (Biowest) for 30 min at 37°C. The samples were deproteinized by acetonitrile a nd quantified by LC-MS (Exion LC AD/QTrap 6500+, AB Sciex). Data are expressed as a percentage of the remaining parent compound after 30 min incubation; standard deviations of the means ar e gi ve n for duplicate measurements.
(1 picture or pasted object on this page, not shown here)

The target of a further data set is T2, human cathepsin B (HuCB) (Homo sapiens, UniProt P07858).
T2 construct: purchased Calbiochem
In words: Second order rate constant (k2nd) of inhibition, human cathepsin B. Format: biochemical. To be noted: for second order rate constant k2nd HuCB: Cbz–Phe–Arg–AMC, pH 5.5, mean of triplicate; for kinact/KI: pH 5.5, read-out: second order rate constant k2nd HuCB. How it is done:
(§1) (A) Sensitivity of SmCB1 and its human ortholog cathepsin B (HuCB) to inhibitors. The second order rate constants were measured in a kinetic activity assay with the fluorogenic peptide substrate Cbz–Phe–Arg–AMC at pH 5.5. […] Resulting phenotypes observed at three time points were graded by the severity score ranging from 0 to 4, with 4 being the most severe (see Figure S2A,B).
(§2) Inhibition measurements were performed in triplicates in 96-well microplates (100 μL assay volume) at 37 °C. […] The kinetics of product release was continuously monitored in an Infinite M1000 microplate reader (Tecan) at excitation and emission wavelengths of 360 and 465 nm, respectively. The IC50 values were determined by nonlinear regression using GraFit software. To determine the inhibition constant k2nd, the enzyme (40 pM SmCB1 or 60 pM HuCB) was added to a mixture of the fluorogenic substrate Cbz–Phe–Arg–AMC (20 μM for SmCB1 and 33 μM for HuCB) and an inhibitor (0–1 μM) in the assay buffer under assay conditions as above. The hydrolysis of substrate was monitored for 30 min in a microplate reader as described above. […] The second order rate constant, k2nd, was determined by fitting to the linear equation kobs = (k2nd[I])/(1 + [S]/KM), where [S] is the substrate concentration, [I] is the inhibitor concentration, and KM is the Michaelis–Menten constant.

In data set [4] the target is T1, SmCB1. Briefly: SmCB1 kinetic inhibition assay (IC50) with fluorogenic substrate Cbz–Phe–Arg–AMC. Format: biochemical. To be noted: recombinant SmCB1, Cbz–Phe–Arg–AMC, pH 5.5; mean ± SE, triplicate; n.i.: no significant inhibition at 100 μM. An excerpt:
Thirty-four peptidomimetic vinyl sulfone analogs (including vinyl sulfonamides and vinyl sulfonate esters) were explored as potential inhibitors of SmCB1 to infer the structural requirements of the inhibitor-binding subsites in the enzyme active site cleft. The compound scaffold is defined by positions P3 through P1′, and the substitutions were selected to provide a high diversity at P2 and P1′ (Table 1). These two positions were recently reported to display large differences in the subsite interaction energy in response to their structural modifications.[10] The compounds were screened in vitro against recombinant SmCB1, and their IC50 values were determined using a kinetic inhibition assay with the fluorogenic substrate Cbz–Phe–Arg–AMC.
Inhibition measurements were performed in triplicates in 96-well microplates (100 μL assay volume) at 37 °C. […] The kinetics of product release was continuously monitored in an Infinite M1000 microplate reader (Tecan) at excitation and emission wavelengths of 360 and 465 nm, respectively. The IC50 values were determined by nonlinear regression using GraFit software. To determine the inhibition constant k2nd, the enzyme (40 pM SmCB1 or 60 pM HuCB) was added to a mixture of the fluorogenic substrate Cbz–Phe–Arg–AMC (20 μM for SmCB1 and 33 μM for HuCB) and an inhibitor (0–1 μM) in the assay buffer under assay conditions as above. The hydrolysis of substrate was monitored for 30 min in a microplate reader as described above. An observed rate constant, kobs, was calculated at each inhibitor concentration by fitting the progress curve to the equation P = vi/kobs(1 – e^–kobst), where P is the product formation, vi is the initial velocity, and t is the reaction time. For both enzymes, kobs varied linearly with the inhibitor concentration showing that the dependence of kobs on the inhibitor concentration is nonsaturating. […] The second order rate constant, k2nd, was determined by fitting to the linear equation kobs = (k2nd[I])/(1 + [S]/KM), where [S] is the substrate concentration, [I] is the inhibitor concentration, and KM is the Michaelis–Menten constant. KM values determined for SmCB1 and HuCB were 25 and 38 μM, respectively.

Data set [5] deals with T1, SmCB1. Briefly: biochemical. The data set is classed as biochemical. The following applies: pH 5.5, read-out: second order rate constant k2nd SmCB1. The method, then: as §1, §2
The test system of data set [6] is SmCB1. Briefly: biochemical. Format: biochemical, Schistosoma mansoni. The following applies: k2nd for SmCB1 to k2nd for human cathepsin B. The method, then: as §1, §2

Where “and” joins values, the source holds several entries; their conditions need not be identical. Equal values may be shown once. Read-outs that look alike come from different tables or passages of the source.

T1 sequence (Q8MNY2 87-340 T185A/T300A): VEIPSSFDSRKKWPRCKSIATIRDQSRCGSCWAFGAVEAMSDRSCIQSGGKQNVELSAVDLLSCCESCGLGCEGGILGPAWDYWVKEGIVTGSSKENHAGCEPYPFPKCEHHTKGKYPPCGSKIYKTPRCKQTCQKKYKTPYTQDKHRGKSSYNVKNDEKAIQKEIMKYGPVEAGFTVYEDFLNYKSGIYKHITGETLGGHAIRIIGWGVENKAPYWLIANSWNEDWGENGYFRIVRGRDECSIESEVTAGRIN

Take `CC(C)C[C@H](NC(=O)N1CCOCC1)C(=O)N[C@H](/C=C/S(=O)(=O)c1ccccc1)CCc1ccccc1` [K11017, morpholino urea-leucyl-homophenylalanyl-vinylsulfone-phenyl]: the IC50 on SmCB1 [1] is 1.71 ± 0.13 nM.

As for `CN1CCN(C(=O)N[C@@H](Cc2ccccc2)C(=O)N[C@H](/C=C/S(=O)(=O)c2ccccc2)CCc2ccccc2)CC1` [K11777, N-methylpiperazine-phenylalanyl-homophenylalanyl-vinylsulfone-phenyl, reference compound], the half-maximal inhibitory concentration (IC50) on SmCB1 [1] is 2.09 ± 0.08 nM. Moreover, the severity score in data set [2] (1 μM, 24 hours) amounted to 0; in data set [2] (1 μM, 48 hours), 0; in data set [2] (1 μM, 72 hours), 3; in data set [2] (10 μM, 24 hours) it was 0; in data set [2] (10 μM, 48 hours), 1; in data set [2] (10 μM, 72 hours), 3. For the same compound, the “percentage of remaining parent compound in plasma” value in data set [3] was found to be 88%.

With `CN1CCN(C(=O)N[C@@H](Cc2ccccc2)C(=O)N[C@H](/C=C/S(=O)(=O)NOCc2ccccc2)CCc2ccccc2)CC1` [WRR-286], the severity score in data set [2] (1 μM, 24 hours) was determined as 0; in data set [2] (1 μM, 48 hours), 0; in data set [2] (1 μM, 72 hours) it was 4; in data set [2] (10 μM, 24 hours), 0; in data set [2] (10 μM, 48 hours) it was 4; in data set [2] (10 μM, 72 hours), 4. Further, at human cathepsin B (HuCB), the “second order rate constant k2nd HuCB” value is listed as 33 618 M^–1 s^–1. The kinact/KI on human cathepsin B (HuCB) is 33600 M⁻¹ s⁻¹; on SmCB1 [5] it was 200000 M⁻¹ s⁻¹. In addition, the “percentage of remaining parent compound in plasma” value in data set [3] is 107%. Moreover, on SmCB1 [4], the IC50 was ~0.6 nM and 0.61 nM. Besides, the selectivity ratio result in the data set with SmCB1 [6] was “about 6.0”.

With `CCOC(=O)C1CCN(C(=O)N[C@@H](Cc2ccc(O)cc2)C(=O)N[C@H](/C=C/S(=O)(=O)c2ccccn2)CCc2ccccc2)CC1` [WRR-391], the severity score in data set [2] (1 μM, 24 hours) was determined as 0; in data set [2] (1 μM, 48 hours) it was 0; in data set [2] (1 μM, 72 hours), 0; in data set [2] (10 μM, 24 hours) it was 0; in data set [2] (10 μM, 48 hours), 0; in data set [2] (10 μM, 72 hours), 4. Also, the “second order rate constant k2nd HuCB” value at human cathepsin B (HuCB) was 152 806 M^–1 s^–1. In addition, the kinact/KI was 153000 M⁻¹ s⁻¹ at human cathepsin B (HuCB) and 208000 M⁻¹ s⁻¹ on SmCB1 [5]. Further, the “percentage of remaining parent compound in plasma” value in data set [3] is 54%. Besides, the concentration for half-maximal inhibition (IC50) on SmCB1 [4] is ~0.2 nM and 0.24 nM. For the same compound, in the data set on SmCB1 [6], the selectivity ratio is reported as approximately 1.4.
